Tests used:
[1] = target: Replicase polyprotein 1a (Severe acute respiratory syndrome-related coronavirus, UniProt P0C6U8); experiment: Inhibition of SARS coronavirus main protease
[2] = target: Replicase polyprotein 1a (Severe acute respiratory syndrome-related coronavirus) (UniProt P0C6U8); experiment: Inhibition of SARS coronavirus main protease at 10 uM

Row | Structure (SMILES) | IC50 [1] [µM] | inhibition [2] [%]
1 | Nc1ncc(S(=O)(=O)c2ccc(Cl)cc2)c(N)n1 | 6 | 
2 | CSc1[nH]nc(NC(=O)c2cccs2)c1S(=O)(=O)c1ccccc1 | 15 | 
3 | O=[N+]([O-])c1ccc(S(=O)(=O)c2ccc([N+](=O)[O-])cc2)cc1 | 25 | 
4 | CCOC(=O)C(=CNc1ccc(S(=O)(=O)c2ccc(/N=C/C(C(=O)OCC)=C(\O)OCC)cc2)cc1)C(=O)OCC | 32 | 
5 | Clc1ccc(-c2noc(CSC3=NCCN3)n2)cc1 |  | 61
6 | O=[N+]([O-])c1ccc(S(=O)(=O)c2ccc(Cl)cc2)[n+]([O-])c1 | 15 | 
7 | Cc1oc(C(C)(C)C)cc1-c1cc(NS(=O)(=O)c2cccs2)[nH]n1 | 10 | 
8 | O=S(=O)(Cc1[nH]c(-c2ccc(Cl)s2)c[s+]1)c1cccs1 | 18 | 
9 | CC1(C)CC(=O)c2c(NCc3ccco3)sc(C#N)c2C1 | 16 | 
10 | CCOC(=O)/C(C#N)=C/Nc1ccc(S(=O)(=O)c2ccc(/N=C/C(C#N)=C(\O)OCC)cc2)cc1 | 16 | 
11 | O=[N+]([O-])c1cc(C(F)(F)F)ccc1S(=O)(=O)c1ccc(Cl)cc1 | 12 | 
12 | CC(=O)c1ccccc1S(=O)(=O)c1ccccc1C(=O)O | 16 | 
13 | Cc1nn(C)c(NCc2ccc(-c3cccs3)s2)c1[N+](=O)[O-] | 20 | 
14 | Cc1noc(NC(=O)c2ccc(-c3cc(C(F)(F)F)nn3C)s2)c1[N+](=O)[O-] | 5 | 
15 | O=C(Cc1nccs1)c1nccs1 | 40 | 
16 | O=C(Oc1ccc(S(=O)(=O)c2ccc(OC(=O)C(Cl)=C(Cl)Cl)cc2)cc1)C(Cl)=C(Cl)Cl | 0.9 | 
17 | O=C(O)c1ccc(S(=O)(=O)c2cc(Br)c(O)c(Br)c2)cc1 | 16 | 
18 | COc1ccc([N+](=O)[O-])c(S(=O)(=O)c2ccccc2)n1 |  | 58

Reference: ChEMBL document CHEMBL1145342, “Structure-based drug design and structural biology study of novel nonpeptide inhibitors of severe acute respiratory syndrome coronavirus main protease” (J Med Chem, 2006)
